In article PMC4945070 (PLoS Neglected Tropical Diseases, 2016):
Structures can show the parent of a compound that is named as a salt.

What was measured:
[1] = molecular target: H. contortus L-AChR1.1 (UNC-63, UNC-38, ACR-8, UNC-29.1) (Haemonchus contortus, UniProt A9XX24+D6MYE9+D6MYF3+D6MYF4); experiment: cell-based; parameters: Emax: dose or concentration left out as unconfirmed
Protocol: (§1) The H. contortus cDNAs encoding AChR subunits and ancillary proteins were available as expression clones in the pTB207 vector and C. elegans expression clones were a gift from T. Boulin.. cRNA synthesis of each construct required NheI-linearized templates and was performed with the mMessage mMachine T7 Kit (Ambion) according to the manufacturer’s instructions. cRNAs were precipitated with lithium chloride and redissolved in RNAse-free water and stored at -80°C. cRNA concentration was determined using a Nanodrop spectrophotometer (Thermo Scientific) and cRNA purity and integrity was assessed by electrophoresis through a 1% gel stained with GreenGlo nucleic acid dye (Denville Scientific Inc.).
(§2) Oocytes were collected from mature Xenopus females according to standard procedures and incubated at 19°C in a ND96 solution (NaCl 96 mM, KCl 2 mM, CaCl2 1.8 mM, MgCl2 1 mM, and HEPES 5 mM, pH 7.3 supplemented with sodium pyruvate 2.5 mM). Defolliculated oocytes were injected into the animal pole with approximately 36 nL of a cRNA mix containing 50 ng/μL of each cRNA in RNAse-free water using the Nanoject system (Drummond Scientific, Broomall, PA). Negative controls consisted of oocytes injected with RNAse-free water. Oocytes were then stored at 19°C in ND96 for 5 days to allow receptor expression. In order to prevent activation of endogenous calcium-activated chloride channels, the oocytes were incubated in ND96 supplemented with 100 μM of the calcium chelator BAPTA-AM, 4h prior to recording.
(§3) Two-electrode voltage-clamp experiments were carried out using a perfusion system connected to a flat RC-1Z chamber (Harvard Apparatus). Glass electrodes were filled with 3M KCl and checked for resistance between 1 and 3 MΩ. The oocyte bath was connected to the ground through a 3 M KCl agar bridge. Agonist and antagonists were dissolved or diluted in recording solution (100 mM NaCl, 2.5 mM KCl, 1 mM CaCl2, 5 mM HEPES, pH 7.3). All measurements were performed using a Geneclamp 500B amplifier and Digidata 1322M (Axon Instruments), oocytes were voltage-clamped at -60 mV. Drug solutions were applied to oocytes by gravity flow using perfusion syringes directly connected to the chamber. Data were collected and analyzed using Clampex 9.2 and Clampfit 9.2 (Axon Instruments, Sunnyvale, CA, USA). Traces were filtered at 30 Hz and analyzed using GraphPad Prism 5.0 software (GraphPad Software, San Diego, CA, USA). Final results are presented as means ± SE.

[2] = molecular target: H. contortus L-AChR1.3 (UNC-63, UNC-38, ACR-8, UNC-29.3) (Haemonchus contortus, UniProt A9XX24+D6MYF1+D6MYF3+D6MYF4); experiment: cell-based; parameters: Emax: dose or concentration left out as unconfirmed
Protocol: as §1, §2, §3

[3] = molecular target: H. contortus L-AChR1.4 (UNC-63, UNC-38, ACR-8, UNC-29.4) (Haemonchus contortus, UniProt A9XX24+D6MYF2+D6MYF3+D6MYF4); experiment: cell-based; assay type: cell-based; parameters: Emax: dose or concentration left out as unconfirmed
Protocol: as §1, §2, §3

[4] = test system: H. contortus L-AChR1.2 (UNC-63, UNC-38, ACR-8, UNC-29.2); assay type: cell-based, Haemonchus contortus
Protocol: as §1, §2
(§4) Two-electrode voltage-clamp experiments were carried out using a perfusion system connected to a flat RC-1Z chamber (Harvard Apparatus). Glass electrodes were filled with 3M KCl and checked for resistance between 1 and 3 MΩ. The oocyte bath was connected to the ground through a 3 M KCl agar bridge. […] Data were collected and analyzed using Clampex 9.2 and Clampfit 9.2 (Axon Instruments, Sunnyvale, CA, USA). Traces were filtered at 30 Hz and analyzed using GraphPad Prism 5.0 software (GraphPad Software, San Diego, CA, USA). […]

[5] = molecular target: H. contortus L-AChR1.1 with added UNC-29.2 (Haemonchus contortus, UniProt A9XX24+D6MYE9+D6MYF3+D6MYF4); experiment: Two-electrode voltage clamp of L-AChR1.1 supplemented with unc-29.2 cRNA in Xenopus oocytes; assay type: cell-based
Text: Typically, such a situation can be identified by a change in the pharmacological properties of a receptor with addition of the second subunit. To address this, we examined the possibility that UNC-29.2 may interfere with or modify the properties of the reconstituted L-AChR1.1. We prepared oocytes injected with cRNAs to express the H. contortus L-AChR1.1 and supplemented this with an increasing (0.2, 1, 5 times) concentration of cRNA for UNC-29.2 relative to UNC-29.1.
as §1, §2, §3

[6] = test system: C. elegans L-AChR subunits (Cel-unc-63, Cel-unc-38, Cel-lev-8, Cel-lev-1) with Hco-unc-29 paralog; experiment: Two-electrode voltage clamp of C. elegans / H. contortus AChR subunit admixtures in Xenopus oocytes; assay type: cell-based
Text: To confirm that the LEV sensitivity rescue could be due to the functional incorporation of parasite protein into the C. elegans L-AChR, we injected into Xenopus oocytes, cRNA admixtures of the four essential C. elegans L-AChR subunits: Cel-unc-63, Cel-unc-38, Cel-lev-8 and Cel-lev-1, the three H. contortus accessory proteins: ric-3, unc-50 and unc-74, and the Cel-unc-29 or each Hco-unc-29 paralog in turn. Reconstitution of the C. elegans L-AChR with Cel-unc-29 produced functional channels as previously described, confirming that the H. contortus accessory proteins are functional between species. Omitting unc-29 produced no response, so any current produced using parasite genes must involve their incorporation into a functional L-AChR. […] UNC-29.1 produced an average of 500 μA currents, while the other three produced reproducible currents below 200 nA with UNC-29.2 producing the smallest response on average (S1 Fig).
as §1, with “Inc.). […]” for “Inc.).”
as §4, with “Apparatus).” for “Apparatus). Glass electrodes were filled with 3M KCl and checked for resistance between 1 and 3 MΩ. The oocyte bath was connected to the ground through a 3 M KCl agar bridge.”

CN1CCC[C@H]1c1cccnc1 [Nicotine, (-)-nicotine hydrogen tartrate]
Emax ([1]; read-out: Max. Current ± S.E.): 4.7 ± 1.05%
Emax ([2]; read-out: Max. Current ± S.E.): 6.79 ± 1.46%
Emax ([3]; read-out: Max. Current ± S.E.): 1.52 ± 0.47%

CN1CCCN=C1/C=C/c1cccs1 [Pyrantel, pyrantel citrate]
Emax ([1]; read-out: Max. Current ± S.E.): 11.8 ± 0.99%
Emax ([2]; read-out: Max. Current ± S.E.): 13.8 ± 1.26%
Emax ([3]; read-out: Max. Current ± S.E.): 7.32 ± 0.98%

CC(=O)OCC[N+](C)(C)C [ACh, Acetylcholine chloride]
Max ACh Current ([1]; L-AChR1.1 (Hco-UNC-29.1)): ~1.5 μA
Hill ([1]; L-AChR1.1, Hill coefficient of concentration-response curve): 0.88 ± 0.05
Emax at 100 µM ([1]; L-AChR1.1, agonists at 100 μM, normalized to 100 μM acetylcholine, read-out: Max. Current ± S.E.): 100%
Max ACh Current ([2]; L-AChR1.3 (Hco-UNC-29.3)): ~1.5 μA
Hill ([2]; L-AChR1.3, Hill coefficient of concentration-response curve): 0.89 ± 0.05
Emax at 100 µM ([2]; L-AChR1.3, agonists at 100 μM, normalized to 100 μM acetylcholine, read-out: Max. Current ± S.E.): 100%
Max ACh Current ([3]; L-AChR1.4 (Hco-UNC-29.4)): ~500 nA
Hill ([3]; L-AChR1.4, Hill coefficient of concentration-response curve): 1.12 ± 0.04
Emax at 100 µM ([3]; L-AChR1.4, agonists at 100 μM, normalized to 100 μM acetylcholine, read-out: Max. Current ± S.E.): 100%
current in response to 100 μM perfusion ([4]; UNC-29.1 replaced by UNC-29.2, n = 18): failed to produce any detectable current
Max ACh Current ([4]; receptor with Hco-UNC-29.2): 0 μA
effect of unc-29.2 cRNA on the pharmacological response ([5]; 0.2, 1, 5 times unc-29.2 cRNA relative to UNC-29.1): no effect
Hill ([5]; 29.1 : 29.2 cRNA 1 : 0.2): 0.91 ± 0.08
Hill ([5]; 29.1 : 29.2 cRNA 1 : 1): 0.96 ± 0.13
Hill ([5]; 29.1 : 29.2 cRNA 1 : 5): 1.09 ± 0.10
average current on perfusion of 100 μM ACh ([6]; admixture with UNC-29.1): 500 μA
current on perfusion of 100 μM ACh ([6]; admixtures with the other three paralogs (UNC-29.2, UNC-29.3, UNC-29.4)): below 200 nA

COc1cc2c3cc1Oc1cc(ccc1O)C[C@@H]1c4c(cc(OC)c(O)c4Oc4ccc(cc4)C[C@@H]3N(C)CC2)CC[N+]1(C)C [D-turbocurarine, (+)-tubocurarine chloride hydrate]
blocking of ACh elicited currents ([1]; L-AChR1.1, dTC 100 μM, DHβE 10 μM, MECA 30 μM, 100 μM ACh): efficiently blocked the ACh responses
Max. Inhibition ± S.E. ([1]; L-AChR1.1, inhibition of 100 μM ACh current, dTC 100 μM, DHβE 10 μM, MECA 30 μM): 99.63 ± 0.35
blocking of ACh elicited currents ([2]; L-AChR1.3, dTC 100 μM, DHβE 10 μM, MECA 30 μM, 100 μM ACh): efficiently blocked the ACh responses
Max Inhibition ± S.E. ([2]; L-AChR1.3, inhibition of 100 μM ACh current, dTC 100 μM, DHβE 10 μM, MECA 30 μM): 99.98 ± 0.02
blocking of ACh elicited currents ([3]; L-AChR1.4, dTC 100 μM, DHβE 10 μM, MECA 30 μM, 100 μM ACh): efficiently blocked the ACh responses
Max Inhibition ± S.E. ([3]; L-AChR1.4, inhibition of 100 μM ACh current, dTC 100 μM, DHβE 10 μM, MECA 30 μM): 97.52 ± 1.09
